Assay results taken from paper PMC3843973 (Journal of medicinal chemistry, 2013).
Like-named read-outs stand apart in the source and are kept apart here.

Legend:
human α4β2-nAChRs = human α4β2-nAChRs (Homo sapiens, UniProt P17787+P43681); format: cell-based; details: mixture of HS and LS α4β2-nAChRs; 10 min preincubation
rat α3β4 nAChR = rat α3β4 nAChR (Rattus norvegicus, UniProt P04757+P12392); details: cited from earlier work
[1] = bidirectional Caco-2 cell permeability assay; format: in vitro ADME; details: human, Caco-2, pH 7.4
Caco-2 cells = assay: bidirectional Caco-2 cell permeability assay; format: in vitro ADME; details: Caco-2 bidirectional
[2] = chemical stability on storage; format: physicochemical; details: stored at room temperature for several months
BALB/cJ male mice = details: mouse
[3] = tested on: strains TA98, TA100, TA1535, and TA1537; assay: bacteria reversion mutation assay; details: strain TA1537 in the presence of S9 fraction, 50 and 100 μM
rat α2β2 nAChR = rat α2β2 nAChR (Rattus norvegicus, UniProt P12389+P12390); details: read-out: Ki α2β2; cited from earlier work
rat α2β2 nAChR, sequence (P12389 28-511): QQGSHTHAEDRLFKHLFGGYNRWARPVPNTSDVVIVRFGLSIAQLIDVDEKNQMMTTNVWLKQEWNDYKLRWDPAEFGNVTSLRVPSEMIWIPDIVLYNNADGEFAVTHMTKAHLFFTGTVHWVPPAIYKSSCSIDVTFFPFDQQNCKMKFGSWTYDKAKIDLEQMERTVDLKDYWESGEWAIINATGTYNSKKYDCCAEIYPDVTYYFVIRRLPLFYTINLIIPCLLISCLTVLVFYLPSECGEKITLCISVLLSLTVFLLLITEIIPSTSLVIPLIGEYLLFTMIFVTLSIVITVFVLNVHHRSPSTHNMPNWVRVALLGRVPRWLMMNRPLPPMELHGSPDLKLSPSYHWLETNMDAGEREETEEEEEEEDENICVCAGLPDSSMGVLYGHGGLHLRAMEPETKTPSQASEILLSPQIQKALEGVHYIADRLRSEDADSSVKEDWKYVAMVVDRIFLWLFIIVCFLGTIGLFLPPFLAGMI
rat α2β2 nAChR, sequence (P12390 25-500): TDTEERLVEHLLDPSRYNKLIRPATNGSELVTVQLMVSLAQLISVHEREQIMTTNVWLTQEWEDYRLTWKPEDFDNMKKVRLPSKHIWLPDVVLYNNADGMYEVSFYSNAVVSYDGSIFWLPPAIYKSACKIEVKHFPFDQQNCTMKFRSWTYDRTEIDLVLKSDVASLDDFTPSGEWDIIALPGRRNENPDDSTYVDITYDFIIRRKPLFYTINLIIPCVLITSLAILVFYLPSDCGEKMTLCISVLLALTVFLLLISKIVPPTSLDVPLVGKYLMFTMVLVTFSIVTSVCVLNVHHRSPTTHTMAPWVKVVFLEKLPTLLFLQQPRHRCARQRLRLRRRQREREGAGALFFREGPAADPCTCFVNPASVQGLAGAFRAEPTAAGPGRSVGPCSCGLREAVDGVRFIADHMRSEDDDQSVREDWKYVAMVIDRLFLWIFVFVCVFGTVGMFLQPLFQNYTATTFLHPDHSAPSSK

rat α2β4 nAChR = rat α2β4 nAChR (Rattus norvegicus, UniProt P12389+P12392); details: read-out: Ki α2β4; cited from earlier work
rat α2β4 nAChR, sequence (P12389 28-511): as the sequence (P12389 28-511) above
rat α2β4 nAChR, sequence (P12392 21-495): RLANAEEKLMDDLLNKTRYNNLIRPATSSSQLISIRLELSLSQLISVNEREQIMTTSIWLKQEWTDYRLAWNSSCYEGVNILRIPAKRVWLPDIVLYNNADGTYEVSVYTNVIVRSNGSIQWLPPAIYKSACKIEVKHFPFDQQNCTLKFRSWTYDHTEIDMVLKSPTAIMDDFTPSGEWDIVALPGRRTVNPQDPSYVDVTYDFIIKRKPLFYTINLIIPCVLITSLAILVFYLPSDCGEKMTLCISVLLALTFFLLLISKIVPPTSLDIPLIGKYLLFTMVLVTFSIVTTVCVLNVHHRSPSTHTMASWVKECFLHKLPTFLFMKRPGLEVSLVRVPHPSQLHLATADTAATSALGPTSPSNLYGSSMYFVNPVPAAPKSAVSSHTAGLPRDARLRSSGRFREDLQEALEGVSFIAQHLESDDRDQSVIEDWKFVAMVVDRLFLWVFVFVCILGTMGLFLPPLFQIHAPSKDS

rat α3β2 nAChR = rat α3β2 nAChR (Rattus norvegicus, UniProt P04757+P12390); details: read-out: Ki α3β2; cited from earlier work
rat α3β2 nAChR, sequence (P12390 25-500): as the sequence (P12390 25-500) above
rat α3β2 nAChR, sequence (P04757 26-499): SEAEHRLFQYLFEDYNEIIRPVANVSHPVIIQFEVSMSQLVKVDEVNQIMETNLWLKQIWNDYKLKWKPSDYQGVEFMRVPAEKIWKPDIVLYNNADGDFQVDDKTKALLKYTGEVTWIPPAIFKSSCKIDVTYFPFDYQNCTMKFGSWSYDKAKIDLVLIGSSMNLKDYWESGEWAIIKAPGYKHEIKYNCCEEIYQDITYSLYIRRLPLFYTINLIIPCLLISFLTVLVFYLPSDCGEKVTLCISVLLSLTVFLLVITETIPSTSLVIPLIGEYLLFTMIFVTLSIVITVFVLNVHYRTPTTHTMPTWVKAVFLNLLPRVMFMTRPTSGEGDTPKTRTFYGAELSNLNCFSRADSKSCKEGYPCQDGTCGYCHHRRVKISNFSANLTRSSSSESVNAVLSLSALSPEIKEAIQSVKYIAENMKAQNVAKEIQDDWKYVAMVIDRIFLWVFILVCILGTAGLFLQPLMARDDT

rat α4β2 nAChR = rat α4β2 nAChR (Rattus norvegicus, UniProt P09483+P12390); details: read-out: Ki α4β2; cited from earlier work
rat α4β2 nAChR, sequence (P12390 25-500): as the sequence (P12390 25-500) above
rat α4β2 nAChR, sequence (P09483 31-630): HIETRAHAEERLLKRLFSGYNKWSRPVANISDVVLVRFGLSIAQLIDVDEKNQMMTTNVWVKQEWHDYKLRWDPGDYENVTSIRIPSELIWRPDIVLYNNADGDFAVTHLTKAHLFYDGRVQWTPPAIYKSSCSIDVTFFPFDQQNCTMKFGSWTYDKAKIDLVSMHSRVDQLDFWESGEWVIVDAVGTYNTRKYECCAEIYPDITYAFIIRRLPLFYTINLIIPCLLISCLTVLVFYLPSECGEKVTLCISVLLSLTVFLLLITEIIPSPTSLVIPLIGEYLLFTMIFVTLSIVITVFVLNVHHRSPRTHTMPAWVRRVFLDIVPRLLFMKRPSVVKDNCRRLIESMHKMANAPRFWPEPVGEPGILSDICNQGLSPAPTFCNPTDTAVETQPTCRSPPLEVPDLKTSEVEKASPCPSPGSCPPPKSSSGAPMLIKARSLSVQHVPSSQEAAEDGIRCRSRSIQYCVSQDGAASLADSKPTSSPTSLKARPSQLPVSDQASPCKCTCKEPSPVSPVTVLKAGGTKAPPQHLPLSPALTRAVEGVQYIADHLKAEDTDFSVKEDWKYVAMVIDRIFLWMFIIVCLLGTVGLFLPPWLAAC

[4] = target: α4β2*-nAChR, prepared from rat forebrain (Rattus norvegicus, UniProt P09483+P12390); details: read-out: Ki α4β2*; cited from earlier work
α4β2*-nAChR, prepared from rat forebrain, sequence (P09483 31-630): as above
α4β2*-nAChR, prepared from rat forebrain, sequence (P12390 25-500): as the sequence (P12390 25-500) above

rat α4β4 nAChR = rat α4β4 nAChR (Rattus norvegicus, UniProt P09483+P12392); details: read-out: Ki α4β4; cited from earlier work
rat α4β4 nAChR, sequence (P12392 21-495): as the sequence (P12392 21-495) above
rat α4β4 nAChR, sequence (P09483 31-630): as the sequence (P09483 31-630) above

rat α3β4 nAChR, sequence (P12392 21-495): as the sequence (P12392 21-495) above
rat α3β4 nAChR, sequence (P04757 26-499): as the sequence (P04757 26-499) above
human α4β2-nAChRs, sequence (P43681 29-627 limits assumed): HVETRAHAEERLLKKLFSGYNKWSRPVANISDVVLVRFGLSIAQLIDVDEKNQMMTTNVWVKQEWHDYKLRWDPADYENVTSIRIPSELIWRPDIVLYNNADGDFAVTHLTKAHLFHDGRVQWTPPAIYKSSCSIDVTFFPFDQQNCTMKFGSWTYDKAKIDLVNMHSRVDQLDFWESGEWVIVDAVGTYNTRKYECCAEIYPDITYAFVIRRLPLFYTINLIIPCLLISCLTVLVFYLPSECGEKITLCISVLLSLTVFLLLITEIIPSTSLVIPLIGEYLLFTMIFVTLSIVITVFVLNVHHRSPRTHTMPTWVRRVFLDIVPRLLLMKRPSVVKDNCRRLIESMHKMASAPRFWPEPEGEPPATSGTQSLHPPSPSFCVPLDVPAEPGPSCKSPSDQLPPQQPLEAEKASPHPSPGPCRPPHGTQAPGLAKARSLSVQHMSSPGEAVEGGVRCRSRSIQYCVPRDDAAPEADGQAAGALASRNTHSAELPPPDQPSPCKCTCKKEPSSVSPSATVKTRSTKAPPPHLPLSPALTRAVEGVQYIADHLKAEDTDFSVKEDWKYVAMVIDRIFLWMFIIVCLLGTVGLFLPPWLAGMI
human α4β2-nAChRs, sequence (P17787 26-502): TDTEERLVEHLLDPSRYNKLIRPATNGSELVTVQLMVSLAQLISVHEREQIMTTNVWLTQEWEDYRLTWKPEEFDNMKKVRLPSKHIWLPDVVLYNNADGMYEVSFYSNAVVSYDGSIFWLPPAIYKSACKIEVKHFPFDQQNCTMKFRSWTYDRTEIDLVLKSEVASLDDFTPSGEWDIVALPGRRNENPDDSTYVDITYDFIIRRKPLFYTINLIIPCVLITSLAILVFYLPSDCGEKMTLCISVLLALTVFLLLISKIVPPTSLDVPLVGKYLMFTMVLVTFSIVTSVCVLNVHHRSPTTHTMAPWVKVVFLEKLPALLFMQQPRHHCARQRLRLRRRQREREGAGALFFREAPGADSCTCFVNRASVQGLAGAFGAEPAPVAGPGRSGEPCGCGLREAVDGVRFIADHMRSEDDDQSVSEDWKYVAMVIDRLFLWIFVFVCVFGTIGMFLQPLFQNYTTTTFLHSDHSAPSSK

SMILES: COCC[C@H]1C[C@@H]1c1cncc(OC[C@@H]2CCN2)c1 [Compound 4]
- Inactivation α4β2 Efficacy (human α4β2-nAChRs): 71 ± 5.5%
- Ki α3β4 (rat α3β4 nAChR): NA (not active, defined as < 50% binding in the primary assay at 10 μM)

SMILES: COCC[C@H]1C[C@@H]1c1cncc(OC[C@@H]2CCCN2C)c1.O=C(O)C(F)(F)F [Compound 26, 3-[(1-Methyl-2(S)-pyrrolidinyl)methoxy]-5-[(1S,2R)-2-(2-methoxyethyl)cyclopropyl]pyridine Trifluoroacetate]
- efflux ratio [1]: 0.2
- permeability class (Caco-2 cells): high permeability
- chemical stability [2]: little or no sign of decomposition
- minimal dose with significant reduction in immobility (BALB/cJ male mice; in vivo, ip): 1 mg/kg
- minimal dose with significant reduction in immobility (BALB/cJ male mice; in vivo, po): 1 mg/kg
- Ames test mutagenic potential [3]: positive significance

SMILES: COCC[C@H]1C[C@@H]1c1cncc(OC[C@@H]2CCCN2)c1.O=C(O)C(F)(F)F [Compound 24, 3-[(2(S)-Pyrrolidinyl)methoxy]-5-[(1S,2R)-2-(2-methoxyethyl)cyclopropyl]pyridine Trifluoroacetate]
- effect in the forced swim test (BALB/cJ male mice; in vivo): no significant effects

SMILES: COCC[C@H]1C[C@@H]1c1cncc(OC[C@H]2CCNC2)c1.O=C(O)C(F)(F)F [Compound 30, 3-[(3(S)-Pyrrolidinyl)methoxy]-5-[(1S,2R)-2-(2-methoxyethyl)cyclopropyl]pyridine Trifluoroacetate]
- abnormal behavioral effects (BALB/cJ male mice; intraperitoneal, 5 mg/kg): sedation and tremor

SMILES: CN[C@H]1CC[C@@H](c2ccc(Cl)c(Cl)c2)c2ccccc21 [sertraline, reference compound]
- effect on immobility (positive control) (BALB/cJ male mice; 20 mg/kg): expected decrease in immobility

SMILES: OCCCCC#Cc1cncc(OC[C@@H]2CCN2)c1 [saz-A, sazetidine-A]
- Ki (rat α2β2 nAChR): 0.087 nM
- Ki (rat α2β4 nAChR): 210 nM
- Ki (rat α3β2 nAChR): 0.38 nM
- Ki (rat α3β4 nAChR; read-out: Ki α3β4): 1900 nM
- Ki (rat α4β2 nAChR): 0.062 nM
- Ki [4]: 0.17 nM
- Ki (rat α4β4 nAChR): 52 nM
